Test results taken from patent publication US10766928B2, “Targeted conformationally-constrained kinked endosomal disrupting peptides” (priority 2012, dated 2020).
Non-standard residues stand in square brackets, D forms with d. Residues, ends and D or L forms follow the SMILES beside them. *: point of attachment. Pentanoyl(5-NH-cholesteryl) = CC(C)CCC[C@@H](C)[C@H]1CC[C@H]2[C@@H]3CC=C4C[C@@H](NCCCCC(=O)*)CC[C@]4(C)[C@H]3CC[C@]12C; PEG3 = NCCOCCOCCOCCC(=O)O; Aib = CC(C)(N)C(=O)O; Ahx = NCCCCCC(=O)O; βAla = NCCC(=O)O

What was measured:
Jurkat lymphocytes = settings: 48 h
Experimental: The effects of the compounds of the invention on human Juikat leukemia cells were evaluated using flow cytometry-based assays of potency, efficacy, and toxicity. […] Analysis of flow cytometry data by non-linear regression was used to determine IC50 values for potency with the efficacy expressed as a percentage. […] Dose-dependent effects on cellular viability after 48 h at 37° C. in culture were also measured by flow cytometry.
The # represents the compound number in accordance with Tables A, B, and C. Concentrations of compound stock solutions were determined by absorbance measurements at 280 nm. Efficacy was determined as % change in cellular fluorescence relative to the maximal response of Compound 1, defined as 100%. Potencies and efficacies in Jurkat lymphocytes were measured by flow cytometry after treatment of cells with the compounds listed and the fluorescent probe Compound 2 (2.5 μM) for 14 hours. Toxicity to this cell line was determined by flow cytometry analysis of light scattering and counterstaining with PI after treatment for 48 h at 37° C. in culture. […] N.D., not determined.

[1] = tested on: endosomes of Jurkat lymphocytes; test: Endosome disruption in Jurkat lymphocytes: release of carboxyfluorescein from disulfide probe Compound 2, flow cytometry; settings: 14 h
Summary of the method: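 Human Jurkat cells treated with compounds plus disulfide probe Compound 2 (2.5 μM) for 14 h at 37 °C. Cytoplasmic release of pH-sensitive fluorophore Compound 3 quantified by flow cytometry. IC50 by non-linear regression; efficacy as % fluorescence change relative to Compound 1 maximum (100%).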

In the case of `CC(C)CCC[C@@H](C)[C@H]1CC[C@H]2[C@@H]3CC=C4C[C@@H](NCCCCC(=O)NCCC(=O)N[C@@H](CCC(=O)O)C(=O)N[C@@H](CCC(=O)O)C(=O)NCCCCCC(=O)NCCCCCC(=O)N[C@@H](C)C(=O)N[C@@H](C)C(=O)N[C@@H](C)C(=O)N[C@@H](Cc5c[nH]c6ccccc56)C(=O)N[C@@H](Cc5c[nH]c6ccccc56)C(=O)N[C@@H](C)C(=O)N[C@@H](Cc5ccc(O)cc5)C(=O)N[C@@H](Cc5c[nH]c6ccccc56)C(=O)N5CCC[C@H]5C(=O)N5CCC[C@H]5C(=O)N[C@H](C(=O)N[C@@H](C)C(N)=O)C(C)C)CC[C@]4(C)[C@H]3CC[C@]12C` [Compound 8, R = BEEXXAAAWWAYWPPVA-CONH2] ({Pentanoyl(5-NH-cholesteryl)-βAla}-EE[Ahx][Ahx]AAAWWAYWPPVA-NH2), the IC50 (Jurkat lymphocytes) is reported as 9000 nM and the EC50 [1] is reported as 400 nM.

`CC(C)CCC[C@@H](C)[C@H]1CC[C@H]2[C@@H]3CC=C4C[C@@H](NCCCCC(=O)NCCC(=O)N[C@@H](CCC(=O)O)C(=O)N[C@@H](CCC(=O)O)C(=O)NCCCCCC(=O)NC(C)(C)C(=O)NC(C)(C)C(=O)NC(C)(C)C(=O)N[C@@H](Cc5c[nH]c6ccccc56)C(=O)N[C@@H](Cc5c[nH]c6ccccc56)C(=O)N[C@@H](C)C(=O)N[C@@H](Cc5ccc(O)cc5)C(=O)N[C@@H](Cc5c[nH]c6ccccc56)C(=O)N5CCC[C@H]5C(=O)N5CCC[C@H]5C(=O)N[C@H](C(N)=O)C(C)C)CC[C@]4(C)[C@H]3CC[C@]12C` [Compound 11, R = BEEXUUUWWAYWPPV-CONH2] ({Pentanoyl(5-NH-cholesteryl)-βAla}-EE[Ahx][Aib][Aib][Aib]WWAYWPPV-NH2) was tested, and the IC50 (Jurkat lymphocytes) was 15000 nM and the EC50 [1] was 800 nM.

`CC(C)CCC[C@@H](C)[C@H]1CC[C@H]2[C@@H]3CC=C4C[C@@H](NCCCCC(=O)NCCC(=O)N[C@@H](CCC(=O)O)C(=O)N[C@@H](CCC(=O)O)C(=O)NCCCCCC(=O)NC(C)(C)C(=O)NC(C)(C)C(=O)NC(C)(C)C(=O)NC(C)(C)C(=O)N[C@@H](Cc5c[nH]c6ccccc56)C(=O)N[C@@H](Cc5c[nH]c6ccccc56)C(=O)N[C@@H](C)C(=O)N[C@@H](Cc5ccc(O)cc5)C(=O)N[C@@H](Cc5c[nH]c6ccccc56)C(=O)N5CCC[C@H]5C(=O)N5CCC[C@H]5C(=O)N[C@H](C(=O)N[C@@H](C)C(N)=O)C(C)C)CC[C@]4(C)[C@H]3CC[C@]12C` [Compound 20, R = BEEXUUUUWWAYWPPVA-CONH2] ({Pentanoyl(5-NH-cholesteryl)-βAla}-EE[Ahx][Aib][Aib][Aib][Aib]WWAYWPPVA-NH2) was tested, and the IC50 (Jurkat lymphocytes) was 15000 nM and the EC50 [1] was 100 nM.

Compound `CC(C)CCC[C@@H](C)[C@H]1CC[C@H]2[C@@H]3CC=C4C[C@@H](NCCCCC(=O)NCCC(=O)N[C@@H](CCC(=O)O)C(=O)N[C@@H](CCC(=O)O)C(=O)NCCCCCC(=O)NC(C)(C)C(=O)NC(C)(C)C(=O)NC(C)(C)C(=O)N[C@@H](C)C(=O)N[C@@H](Cc5c[nH]c6ccccc56)C(=O)N[C@@H](C)C(=O)N[C@@H](Cc5ccc(O)cc5)C(=O)N[C@@H](Cc5c[nH]c6ccccc56)C(=O)N5CCC[C@H]5C(=O)N5CCC[C@H]5C(=O)N[C@H](C(=O)N[C@@H](C)C(N)=O)C(C)C)CC[C@]4(C)[C@H]3CC[C@]12C` [Compound 12, R = BEEXUUUAWAYWPPVA-CONH2] ({Pentanoyl(5-NH-cholesteryl)-βAla}-EE[Ahx][Aib][Aib][Aib]AWAYWPPVA-NH2) has an IC50 (Jurkat lymphocytes) of 14000 nM and an EC50 [1] of 400 nM.

Compound `CC(C)CCC[C@@H](C)[C@H]1CC[C@H]2[C@@H]3CC=C4C[C@@H](NCCCCC(=O)NCCC(=O)N[C@@H](CCC(=O)O)C(=O)N[C@@H](CCC(=O)O)C(=O)NCCCCCC(=O)NC(C)(C)C(=O)NC(C)(C)C(=O)N[C@@H](Cc5c[nH]c6ccccc56)C(=O)N[C@@H](Cc5c[nH]c6ccccc56)C(=O)N[C@@H](C)C(=O)N[C@@H](Cc5ccc(O)cc5)C(=O)N[C@@H](Cc5c[nH]c6ccccc56)C(=O)N5CCC[C@H]5C(=O)N5CCC[C@H]5C(=O)N[C@H](C(=O)N[C@@H](C)C(N)=O)C(C)C)CC[C@]4(C)[C@H]3CC[C@]12C` [Compound 10, R = BEEXUUWWAYWPPVA-CONH2] ({Pentanoyl(5-NH-cholesteryl)-βAla}-EE[Ahx][Aib][Aib]WWAYWPPVA-NH2) has an IC50 (Jurkat lymphocytes) of 15000 nM and an EC50 [1] of 900 nM.

With `CC(C)CCC[C@@H](C)[C@H]1CC[C@H]2[C@@H]3CC=C4C[C@@H](NCCCCC(=O)NCCC(=O)N[C@@H](CCC(=O)O)C(=O)N[C@@H](CCC(=O)O)C(=O)NCCOCCOCCOCCC(=O)NCCOCCOCCOCCC(=O)NC(C)(C)C(=O)NC(C)(C)C(=O)NC(C)(C)C(=O)NC(C)(C)C(=O)N[C@@H](Cc5c[nH]c6ccccc56)C(=O)N[C@@H](Cc5c[nH]c6ccccc56)C(=O)N[C@@H](C)C(=O)N[C@@H](Cc5ccc(O)cc5)C(=O)N[C@@H](Cc5c[nH]c6ccccc56)C(=O)N5CCC[C@H]5C(=O)N5CCC[C@H]5C(=O)N[C@H](C(=O)N[C@@H](C)C(=O)N[C@@H](C)C(N)=O)C(C)C)CC[C@]4(C)[C@H]3CC[C@]12C` [Compound 27, R = BEEOOUUUUWWAYWPPVAA-CONH2] ({Pentanoyl(5-NH-cholesteryl)-βAla}-EE[PEG3][PEG3][Aib][Aib][Aib][Aib]WWAYWPPVAA-NH2) the IC50 (Jurkat lymphocytes) was 3000 nM and the EC50 [1] was 200 nM.

`CC(C)CCC[C@@H](C)[C@H]1CC[C@H]2[C@@H]3CC=C4C[C@@H](NCCCCC(=O)NCCC(=O)N[C@@H](CCC(=O)O)C(=O)N[C@@H](CCC(=O)O)C(=O)NCCCCCC(=O)N[C@@H](C)C(=O)N[C@@H](C)C(=O)N[C@@H](C)C(=O)N[C@@H](Cc5c[nH]c6ccccc56)C(=O)N[C@@H](Cc5c[nH]c6ccccc56)C(=O)N[C@@H](C)C(=O)N[C@@H](Cc5ccc(O)cc5)C(=O)N[C@@H](Cc5c[nH]c6ccccc56)C(=O)N5CCC[C@H]5C(=O)N5CCC[C@H]5C(=O)N[C@H](C(=O)N[C@@H](C)C(N)=O)C(C)C)CC[C@]4(C)[C@H]3CC[C@]12C` [Compound 7, R = BEEXAAAWWAYWPPVA-CONH2] ({Pentanoyl(5-NH-cholesteryl)-βAla}-EE[Ahx]AAAWWAYWPPVA-NH2) gave an IC50 (Jurkat lymphocytes) of 16000 nM and an EC50 [1] of 1000 nM.

Work on `CC(C)CCC[C@@H](C)[C@H]1CC[C@H]2[C@@H]3CC=C4C[C@@H](NCCCCC(=O)NCCC(=O)N[C@@H](CCC(=O)O)C(=O)N[C@@H](CCC(=O)O)C(=O)NCCCCCC(=O)NC(C)(C)C(=O)NC(C)(C)C(=O)NC(C)(C)C(=O)N[C@@H](Cc5c[nH]c6ccccc56)C(=O)N[C@@H](Cc5c[nH]c6ccccc56)C(=O)N[C@@H](C)C(=O)N[C@@H](Cc5c[nH]c6ccccc56)C(=O)N[C@@H](Cc5c[nH]c6ccccc56)C(=O)N5CCC[C@H]5C(=O)N5CCC[C@H]5C(=O)N[C@H](C(=O)N[C@@H](C)C(N)=O)C(C)C)CC[C@]4(C)[C@H]3CC[C@]12C` [Compound 19, R = BEEXUUUWWAWWPPVA-CONH2] ({Pentanoyl(5-NH-cholesteryl)-βAla}-EE[Ahx][Aib][Aib][Aib]WWAWWPPVA-NH2) yielded an IC50 (Jurkat lymphocytes) of 20000 nM and an EC50 [1] of 1000 nM.

In the case of `CC(C)CCC[C@@H](C)[C@H]1CC[C@H]2[C@@H]3CC=C4C[C@@H](NCCCCC(=O)NCCC(=O)N[C@@H](CCC(=O)O)C(=O)N[C@@H](CCC(=O)O)C(=O)NCCCCCC(=O)NCCCCCC(=O)NC(C)(C)C(=O)NC(C)(C)C(=O)NC(C)(C)C(=O)NC(C)(C)C(=O)N[C@@H](Cc5ccc(O)cc5)C(=O)N[C@@H](Cc5ccc(O)cc5)C(=O)N[C@@H](C)C(=O)N[C@@H](Cc5ccc(O)cc5)C(=O)N[C@@H](Cc5ccc(O)cc5)C(=O)N5CCC[C@H]5C(=O)N5CCC[C@H]5C(=O)N[C@H](C(=O)N[C@@H](C)C(N)=O)C(C)C)CC[C@]4(C)[C@H]3CC[C@]12C` [Compound 23, R = BEEXXUUUUYYAYYPPVA-CONH2] ({Pentanoyl(5-NH-cholesteryl)-βAla}-EE[Ahx][Ahx][Aib][Aib][Aib][Aib]YYAYYPPVA-NH2), the IC50 (Jurkat lymphocytes) is reported as 4000 nM and the EC50 [1] is reported as 100 nM.

`CC(C)CCC[C@@H](C)[C@H]1CC[C@H]2[C@@H]3CC=C4C[C@@H](NCCCCC(=O)NCCC(=O)N[C@@H](CCC(=O)O)C(=O)N[C@@H](CCC(=O)O)C(=O)NCCCCCC(=O)NCCCCCC(=O)NC(C)(C)C(=O)NC(C)(C)C(=O)NC(C)(C)C(=O)NC(C)(C)C(=O)N[C@@H](Cc5c[nH]c6ccccc56)C(=O)N[C@@H](Cc5c[nH]c6ccccc56)C(=O)N[C@@H](C)C(=O)N[C@@H](Cc5ccc(O)cc5)C(=O)N[C@@H](Cc5c[nH]c6ccccc56)C(=O)N5CCC[C@H]5C(=O)N5CCC[C@H]5C(=O)N[C@H](C(=O)N[C@@H](C)C(N)=O)C(C)C)CC[C@]4(C)[C@H]3CC[C@]12C` [Compound 21, R = BEEXXUUUUWWAYWPPVA-CONH2] ({Pentanoyl(5-NH-cholesteryl)-βAla}-EE[Ahx][Ahx][Aib][Aib][Aib][Aib]WWAYWPPVA-NH2) gave an IC50 (Jurkat lymphocytes) of 9000 nM and an EC50 [1] of 100 nM.

Compound `CC(C)CCC[C@@H](C)[C@H]1CC[C@H]2[C@@H]3CC=C4C[C@@H](NCCCCC(=O)NCCC(=O)N[C@@H](CCC(=O)O)C(=O)N[C@@H](CCC(=O)O)C(=O)NCCCCCC(=O)NC(C)(C)C(=O)NC(C)(C)C(=O)NC(C)(C)C(=O)N[C@@H](Cc5c[nH]c6ccccc56)C(=O)N[C@@H](C)C(=O)N[C@@H](C)C(=O)N[C@@H](Cc5ccc(O)cc5)C(=O)N[C@@H](Cc5c[nH]c6ccccc56)C(=O)N5CCC[C@H]5C(=O)N5CCC[C@H]5C(=O)N[C@H](C(=O)N[C@@H](C)C(N)=O)C(C)C)CC[C@]4(C)[C@H]3CC[C@]12C` [Compound 13, R = BEEXUUUWAAYWPPVA-CONH2] ({Pentanoyl(5-NH-cholesteryl)-βAla}-EE[Ahx][Aib][Aib][Aib]WAAYWPPVA-NH2) has an IC50 (Jurkat lymphocytes) of 16000 nM and an EC50 [1] of 700 nM.
